Data reported in PMC9532399, “The lysosomal transporter TAPL has a dual role as peptide translocator and phosphatidylserine floppase” (Nature Communications, 2022).
Changes are numbered by the printed parent chain.

What was measured:
[1] = tested on: TAPL E456A mutant; experiment: Peptide transport assay, E456A; format: biochemical, mouse; settings: 9-mer 10 mM (sic), 3 mM ATP
Protocol: (§1) Proteoliposomes for peptide transport assays were prepared according to the protocol of Zhao et al., with some modifications. Briefly, E. coli polar lipid extract dissolved in chloroform was dried under a gentle stream of nitrogen. The thin film of lipids was placed under a desiccator overnight to completely remove residual chloroform and then hydrated in 1X PBS buffer pH 7.4 (137 mM NaCl, 2.7 mM KCl, 8 mM Na2HPO4, and 2 mM KH2PO4) with 10 mM MgCl2 and 5% (v/v) glycerol. After water bath sonication at 22 °C for 5 min (Powersonic 610, KLEENTEK), the lipid solution was extruded using a Mini-Extruder equipped with a polycarbonate membrane filter (200 nm pore) (Avanti Polar Lipids, Inc.) to obtain unilamellar vesicles, which were destabilized with 0.36% (w/v) DM. The DM-purified protein and lipid suspension were mixed in a 1:50 (w/w) ratio. After incubation at 4 °C for 2 h, the mixture was treated with Bio-Beads SM-2 resin (60 and 120 mg, see above) at 4 °C for a total of 18 h to remove detergent. The proteoliposomes were collected by centrifugation at 200,000×g for 1.5 h at 4 °C and resuspended in the buffer described above.
(§2) The peptide transport activity of ΔTMD0 was measured as described previously. Briefly, 50 μL of ΔTMD0-loaded proteoliposomes (~0.6 μg protein) were added into 200 μL reaction buffer containing 1X PBS pH 7.4, 3 mM ATP, and 10 mM MgCl2 in the presence or absence of 10 μM 5-IAF-labeled peptides. To investigate transport activity, the mixture was incubated at 37 °C for 10 min. The reaction was terminated by incubating the mixture for 20 min on ice. Proteoliposomes were collected by centrifugation at 200,000×g for 30 min and then washed twice with 1X PBS. The proteoliposomes were completely disrupted by adding 10% (w/v) SDS solution (final concentration, 2%). The transported peptide was measured using a microplate reader (Gemini XPS) with excitation at 485 nm and emission at 520 nm.

[2] = target: T1, mouse TAPL ΔTMD0 (Mus musculus, UniProt Q9JJ59); experiment: Peptide transport assay, ΔTMD0 proteoliposomes; format: biochemical; settings: for Transport activity: peptide 10 mM (sic)
T1 construct: thrombin cleavage site (C); eGFP (C); 10XHis (C); made in house; host or cells: Trichoplusia ni High Five (Hi5) insect cells, baculovirus (pVL1393)
T1 sequence (Q9JJ59 143-762): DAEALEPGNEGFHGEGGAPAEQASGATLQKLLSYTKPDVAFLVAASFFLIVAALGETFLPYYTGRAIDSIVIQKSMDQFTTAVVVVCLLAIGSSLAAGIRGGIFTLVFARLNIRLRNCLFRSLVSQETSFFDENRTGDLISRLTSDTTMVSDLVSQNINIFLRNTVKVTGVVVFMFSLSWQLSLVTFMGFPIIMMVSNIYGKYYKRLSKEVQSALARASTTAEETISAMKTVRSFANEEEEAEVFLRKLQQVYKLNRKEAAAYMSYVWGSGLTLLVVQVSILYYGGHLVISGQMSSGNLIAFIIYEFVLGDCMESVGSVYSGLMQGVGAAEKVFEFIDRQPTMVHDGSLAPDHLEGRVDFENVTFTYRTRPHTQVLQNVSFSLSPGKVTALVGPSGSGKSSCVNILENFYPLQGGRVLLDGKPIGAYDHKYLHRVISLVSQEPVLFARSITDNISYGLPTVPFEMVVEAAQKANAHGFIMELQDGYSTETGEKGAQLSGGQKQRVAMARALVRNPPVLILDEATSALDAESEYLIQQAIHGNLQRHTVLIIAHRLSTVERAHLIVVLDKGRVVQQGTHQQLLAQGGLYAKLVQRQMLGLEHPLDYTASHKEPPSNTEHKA
Protocol: as §1, §2

[3] = target: T2, TAPL Y405A mutant (Mus musculus, UniProt Q9JJ59, Y405A); experiment: Peptide transport assay, Y405A; format: biochemical; settings: 9-mer 10 mM (sic), 3 mM ATP
T2 construct: thrombin cleavage site (C); eGFP (C); 10XHis (C); made in house; host or cells: Trichoplusia ni High Five (Hi5) insect cells, baculovirus (pVL1393)
T2 sequence (Q9JJ59 143-762 Y405A): T1 sequence (Q9JJ59 143-762) with Y263A
Protocol: as §1, §2

## RRYQNSTC^5-IAFL [9-mer, 5-IAF-labeled peptide of 9 residues (RRYQNSTC^5-IAFL)]
[1]; replicate I
  Transport activity: 48.9147%
[1]; replicate II
  Transport activity: 53.6761%
[1]; replicate III
  Transport activity: 40.3825%
[1]; wild-type = 100%, mean n=3
  Transport activity: 47.6578%
[2]; ATP-dependent, 5-IAF-labeled peptides
  peptide transport: preferentially transported
[2]; + 3 mM ATP, 9-mer + ATP set at 100%, 37 °C 10 min, mean n=3
  Transport activity: 100%
[2]; + 3 mM ATP, replicate I
  Transport activity: 101.702%
[2]; + 3 mM ATP, replicate II
  Transport activity: 98.4079%
[2]; + 3 mM ATP, replicate III
  Transport activity: 99.8902%
[2]; no ATP, 9-mer + ATP set at 100%, mean n=3
  Transport activity: 5.331%
[2]; no ATP, replicate I
  Transport activity: 5.213%
[2]; no ATP, replicate II
  Transport activity: 5.414%
[2]; no ATP, replicate III
  Transport activity: 5.365%
[3]; replicate I
  Transport activity: 18.1424%
[3]; replicate II
  Transport activity: 19.1407%
[3]; replicate III
  Transport activity: 12.1153%
[3]; wild-type = 100%, mean n=3
  Transport activity: 16.4661%
